Test results published in patent US20020111274A1, “1-alkyl-3-[1-(substituted phenyl) benzotriazol-6-yl] uracils” (BASF Aktiengesellschaft, priority 2000, published 2002).

How the values were obtained:
[1] = test system: ABUTH Velvetleaf; assay: Postemergence herbicidal evaluation, ABUTH; assay type: in vivo, Abutilon theophrasti, Medic.; design: scale not given here; settings: postemergence spray, rated about two-three weeks after treatment
Procedure, shortened: (§1)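 Two-week-old seedlings sprayed postemergence with compound in 80/20 acetone/water plus 1.0% methylated seed oil, at about 0.006–0.400 kg/ha, through a nozzle at 40 psi. Plants kept under greenhouse conditions and visually rated about two–three weeks after treatment; ratings from repeat tests averaged.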

[2] = test system: AMBEL Ragweed, Common; assay: Postemergence herbicidal evaluation, AMBEL; assay type: in vivo, Ambrosia artemisifolia, L.; design: scale not given here; settings: postemergence spray, rated about two-three weeks after treatment
Procedure, shortened: as §1

[3] = test system: CASOB Sicklepod; assay: Postemergence herbicidal evaluation, CASOB; assay type: in vivo, Cassia obtusifolia, L.; design: scale not given here; settings: postemergence spray, rated about two-three weeks after treatment
Procedure, shortened: as §1

[4] = test system: CHEAL Lambsquarters, Common; assay: Postemergence herbicidal evaluation, CHEAL; assay type: in vivo, Chenopodium album, L.; design: scale not given here; settings: postemergence spray, rated about two-three weeks after treatment
Procedure, shortened: as §1

[5] = test system: ECHOG Barnyardgrass; assay: Postemergence herbicidal evaluation, ECHOG; assay type: in vivo, Echinochloa crus-galli, (L.) Beau; design: scale not given here; settings: postemergence spray, rated about two-three weeks after treatment
Procedure, shortened: as §1

[6] = test system: GALAP Galium; assay: Postemergence herbicidal evaluation, GALAP; assay type: in vivo, Galium aparine; design: scale not given here; settings: postemergence spray, rated about two-three weeks after treatment
Procedure, shortened: as §1

[7] = test system: IPOHE Morningglory, Ivyleaf; assay: Postemergence herbicidal evaluation, IPOHE; assay type: in vivo, Ipomoea hederacea, (L.) Jacq.; design: scale not given here; settings: postemergence spray, rated about two-three weeks after treatment
Procedure, shortened: as §1

[8] = test system: SETVI Foxtail, Green; assay: Postemergence herbicidal evaluation, SETVI; assay type: in vivo, Setaria viridis, (L.) Beau; design: scale not given here; settings: postemergence spray, rated about two-three weeks after treatment
Procedure, shortened: as §1

[9] = test system: GLXMAW Soybean, Williams; assay: Postemergence herbicidal evaluation, GLXMAW; assay type: in vivo, Glycine max, (L.) Merr. cv Williams; design: scale not given here; settings: postemergence spray, rated about two-three weeks after treatment
Procedure, shortened: as §1

[10] = test system: TRZAWR Wheat, Winter, cv Riband; assay: Postemergence herbicidal evaluation, TRZAWR; assay type: in vivo, Triticum aestivum; design: scale not given here; settings: postemergence spray, rated about two-three weeks after treatment
Procedure, shortened: as §1

[11] = test system: ORYSAT Rice, Tebonnet; assay: Postemergence herbicidal evaluation, ORYSAT; assay type: in vivo, Oryza sativa, (L.); design: scale not given here; settings: postemergence spray, rated about two-three weeks after treatment
Procedure, shortened: as §1

[12] = test system: ZEAMX Corn, Field; assay: Postemergence herbicidal evaluation, ZEAMX; assay type: in vivo, Zea mays, L. (Sammel-Bezeichnung); design: scale not given here; settings: postemergence spray, rated about two-three weeks after treatment
Procedure, shortened: as §1

[13] = test system: ABUTH Velvetleaf; assay: Preemergence herbicidal evaluation, ABUTH; assay type: in vivo, Abutilon theophrasti, Medic.; design: scale not given here; settings: preemergence
Procedure, shortened: (§2)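 Preemergence soil spray: aqueous acetone, ~0.013–0.800 kg/ha, applied right after sowing (seed/potting-soil mix over ~1 in soil). Greenhouse, routine watering. Scored 4–5 wk post-treatment on a rating scale.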

[14] = test system: AMBEL Ragweed, Common; assay: Preemergence herbicidal evaluation, AMBEL; assay type: in vivo, Ambrosia artemisifolia, L.; design: scale not given here; settings: preemergence
Procedure, shortened: as §2

[15] = test system: CASOB Sicklepod; assay: Preemergence herbicidal evaluation, CASOB; assay type: in vivo, Cassia obtusifolia, L.; design: scale not given here; settings: preemergence
Procedure, shortened: as §2

[16] = test system: CHEAL Lambsquarters, Common; assay: Preemergence herbicidal evaluation, CHEAL; assay type: in vivo, Chenopodium album, L.; design: scale not given here; settings: preemergence
Procedure, shortened: as §2

[17] = test system: ECHOG Barnyardgrass; assay: Preemergence herbicidal evaluation, ECHOG; assay type: in vivo, Echinochloa crus-galli, (L.) Beau; design: scale not given here; settings: preemergence
Procedure, shortened: as §2

[18] = test system: GALAP Galium; assay: Preemergence herbicidal evaluation, GALAP; assay type: in vivo, Galium aparine; design: scale not given here; settings: preemergence
Procedure, shortened: as §2

[19] = test system: IPOHE Morningglory, Ivyleaf; assay: Preemergence herbicidal evaluation, IPOHE; assay type: in vivo, Ipomoea hederacea, (L.) Jacq.; design: scale not given here; settings: preemergence
Procedure, shortened: as §2

[20] = test system: SETVI Foxtail, Green; assay: Preemergence herbicidal evaluation, SETVI; assay type: in vivo, Setaria viridis, (L.) Beau; design: scale not given here; settings: preemergence
Procedure, shortened: as §2

[21] = test system: GLXMAW Soybean, Williams; assay: Preemergence herbicidal evaluation, GLXMAW; assay type: in vivo, Glycine max, (L.) Merr. cv Williams; design: scale not given here; settings: preemergence
Procedure, shortened: as §2

[22] = test system: TRZAWR Wheat, Winter, cv Riband; assay: Preemergence herbicidal evaluation, TRZAWR; assay type: in vivo, Triticum aestivum; design: scale not given here; settings: preemergence, rate 0.062 kg/ha
Procedure, shortened: as §2

[23] = test system: ORYSAT Rice, Tebonnet; assay: Preemergence herbicidal evaluation, ORYSAT; assay type: in vivo, Oryza sativa, (L.); design: scale not given here; settings: preemergence
Procedure, shortened: as §2

[24] = test system: ZEAMX Corn, Field; assay: Preemergence herbicidal evaluation, ZEAMX; assay type: in vivo, Zea mays, L. (Sammel-Bezeichnung); design: scale not given here; settings: preemergence
Procedure, shortened: as §2

## CCc1ccc(-n2nnc3cc(F)c(-n4c(=O)cc(C(F)(F)F)n(C)c4=O)cc32)cc1 [Example 17, 3-[1-(4-ethylphenyl)-5-fluoro-1H-1,2,3-benzotriazol-6-yl]-1-methyl-6-(trifluoromethyl)-2,4(1H,3H)-pyrimidinedione]
[1]; 0.008 kg/ha
  Postemergence herbicidal rating ABUTH: 9.0
[1]; 0.016 kg/ha
  Postemergence herbicidal rating ABUTH: 9.0
[1]; 0.032 kg/ha
  Postemergence herbicidal rating ABUTH: 9.0
[1]; 0.062 kg/ha
  Postemergence herbicidal rating ABUTH: 9.0
[2]; 0.008 kg/ha
  Postemergence herbicidal rating AMBEL: 5.0
[2]; 0.016 kg/ha
  Postemergence herbicidal rating AMBEL: 6.0
[2]; 0.032 kg/ha
  Postemergence herbicidal rating AMBEL: 8.0
[2]; 0.062 kg/ha
  Postemergence herbicidal rating AMBEL: 9.0
[3]; 0.008 kg/ha
  Postemergence herbicidal rating CASOB: 1.0
[3]; 0.016 kg/ha
  Postemergence herbicidal rating CASOB: 3.0
[3]; 0.032 kg/ha
  Postemergence herbicidal rating CASOB: 5.0
[3]; 0.062 kg/ha
  Postemergence herbicidal rating CASOB: 6.0
[4]; 0.008 kg/ha
  Postemergence herbicidal rating CHEAL: 9.0
[4]; 0.016 kg/ha
  Postemergence herbicidal rating CHEAL: 6.0
[4]; 0.032 kg/ha
  Postemergence herbicidal rating CHEAL: 7.0
[4]; 0.062 kg/ha
  Postemergence herbicidal rating CHEAL: 9.0
[5]; 0.008 kg/ha
  Postemergence herbicidal rating ECHCG: 0.0
[5]; 0.016 kg/ha
  Postemergence herbicidal rating ECHCG: 0.0
[5]; 0.032 kg/ha
  Postemergence herbicidal rating ECHCG: 1.0
[5]; 0.062 kg/ha
  Postemergence herbicidal rating ECHCG: 5.0
[6]; 0.008 kg/ha
  Postemergence herbicidal rating GALAP: 2.0
[6]; 0.016 kg/ha
  Postemergence herbicidal rating GALAP: 4.0
[6]; 0.032 kg/ha
  Postemergence herbicidal rating GALAP: 4.0
[6]; 0.062 kg/ha
  Postemergence herbicidal rating GALAP: 7.0
[7]; 0.008 kg/ha
  Postemergence herbicidal rating IPOHE: 9.0
[7]; 0.016 kg/ha
  Postemergence herbicidal rating IPOHE: 9.0
[7]; 0.032 kg/ha
  Postemergence herbicidal rating IPOHE: 9.0
[7]; 0.062 kg/ha
  Postemergence herbicidal rating IPOHE: 9.0
[8]; 0.008 kg/ha
  Postemergence herbicidal rating SETVI: 1.0
[8]; 0.016 kg/ha
  Postemergence herbicidal rating SETVI: 1.0
[8]; 0.032 kg/ha
  Postemergence herbicidal rating SETVI: 3.0
[8]; 0.062 kg/ha
  Postemergence herbicidal rating SETVI: 8.0
[9]; 0.008 kg/ha
  Postemergence herbicidal rating GLXMAW: 5.5
[9]; 0.016 kg/ha
  Postemergence herbicidal rating GLXMAW: 5.5
[9]; 0.032 kg/ha
  Postemergence herbicidal rating GLXMAW: 5.5
[9]; 0.062 kg/ha
  Postemergence herbicidal rating GLXMAW: 7.0
[10]; 0.008 kg/ha
  Postemergence herbicidal rating TRZAWR: 3.5
[10]; 0.016 kg/ha
  Postemergence herbicidal rating TRZAWR: 3.5
[10]; 0.032 kg/ha
  Postemergence herbicidal rating TRZAWR: 4.0
[10]; 0.062 kg/ha
  Postemergence herbicidal rating TRZAWR: 5.0
[11]; 0.008 kg/ha
  Postemergence herbicidal rating ORYSAT: 3.0
[11]; 0.016 kg/ha
  Postemergence herbicidal rating ORYSAT: 3.0
[11]; 0.032 kg/ha
  Postemergence herbicidal rating ORYSAT: 3.5
[11]; 0.062 kg/ha
  Postemergence herbicidal rating ORYSAT: 4.0
[12]; 0.008 kg/ha
  Postemergence herbicidal rating ZEAMX: 5.0
[12]; 0.016 kg/ha
  Postemergence herbicidal rating ZEAMX: 5.5
[12]; 0.032 kg/ha
  Postemergence herbicidal rating ZEAMX: 5.5
[12]; 0.062 kg/ha
  Postemergence herbicidal rating ZEAMX: 5.5
[13]; rate 0.016 kg/ha
  ABUTH herbicidal rating: 9.0
[13]; rate 0.032 kg/ha
  ABUTH herbicidal rating: 7.0
[13]; rate 0.062 kg/ha
  ABUTH herbicidal rating: 9.0
[13]; rate 0.125 kg/ha
  ABUTH herbicidal rating: 9.0
[14]; rate 0.016 kg/ha
  AMBEL herbicidal rating: 0.0
[14]; rate 0.032 kg/ha
  AMBEL herbicidal rating: 3.3
[14]; rate 0.062 kg/ha
  AMBEL herbicidal rating: 6.7
[14]; rate 0.125 kg/ha
  AMBEL herbicidal rating: 8.3
[15]; rate 0.016 kg/ha
  CASOB herbicidal rating: 0.0
[15]; rate 0.032 kg/ha
  CASOB herbicidal rating: 1.3
[15]; rate 0.062 kg/ha
  CASOB herbicidal rating: 3.3
[15]; rate 0.125 kg/ha
  CASOB herbicidal rating: 2.3
[16]; rate 0.016 kg/ha
  CHEAL herbicidal rating: 9.0
[16]; rate 0.032 kg/ha
  CHEAL herbicidal rating: 9.0
[16]; rate 0.062 kg/ha
  CHEAL herbicidal rating: 9.0
[16]; rate 0.125 kg/ha
  CHEAL herbicidal rating: 9.0
[17]; rate 0.016 kg/ha
  ECHCG herbicidal rating: 0.0
[17]; rate 0.032 kg/ha
  ECHCG herbicidal rating: 1.7
[17]; rate 0.062 kg/ha
  ECHCG herbicidal rating: 6.3
[17]; rate 0.125 kg/ha
  ECHCG herbicidal rating: 8.3
[18]; rate 0.016 kg/ha
  GALAP herbicidal rating: 0.0
[18]; rate 0.032 kg/ha
  GALAP herbicidal rating: 0.0
[18]; rate 0.062 kg/ha
  GALAP herbicidal rating: 1.0
[18]; rate 0.125 kg/ha
  GALAP herbicidal rating: 1.0
[19]; rate 0.016 kg/ha
  IPOHE herbicidal rating: 0.0
[19]; rate 0.032 kg/ha
  IPOHE herbicidal rating: 3.3
[19]; rate 0.062 kg/ha
  IPOHE herbicidal rating: 6.0
[19]; rate 0.125 kg/ha
  IPOHE herbicidal rating: 9.0
[20]; rate 0.016 kg/ha
  SETVI herbicidal rating: 6.5
[20]; rate 0.032 kg/ha
  SETVI herbicidal rating: 7.3
[20]; rate 0.062 kg/ha
  SETVI herbicidal rating: 9.0
[20]; rate 0.125 kg/ha
  SETVI herbicidal rating: 9.0
[21]; rate 0.016 kg/ha
  GLXMAW herbicidal rating: 1.5
[21]; rate 0.032 kg/ha
  GLXMAW herbicidal rating: 1.7
[21]; rate 0.062 kg/ha
  GLXMAW herbicidal rating: 3.0
[21]; rate 0.125 kg/ha
  GLXMAW herbicidal rating: 3.0
[22]
  TRZAWR herbicidal rating: 3.0
[23]; rate 0.016 kg/ha
  ORYSAT herbicidal rating: 1.0
[23]; rate 0.032 kg/ha
  ORYSAT herbicidal rating: 0.5
[23]; rate 0.062 kg/ha
  ORYSAT herbicidal rating: 4.0
[23]; rate 0.125 kg/ha
  ORYSAT herbicidal rating: 4.7
[24]; rate 0.016 kg/ha
  ZEAMX herbicidal rating: 1.0
[24]; rate 0.032 kg/ha
  ZEAMX herbicidal rating: 3.7
[24]; rate 0.062 kg/ha
  ZEAMX herbicidal rating: 4.0
[24]; rate 0.125 kg/ha
  ZEAMX herbicidal rating: 6.7
other
  melting point: 189 to 192 °C
